Assay results taken from ChEMBL document CHEMBL1146790, “Structural variations in keto-glutamines for improved inhibition against hepatitis A virus 3C proteinase” (Bioorg Med Chem Lett, 2004).

Test system: 3C proteinase (Hepatitis A virus)
Experiment: Reversible inhibitory activity against Protease at a concentration 100 uM
Settings: Hepatovirus A

inhibition [%]	SMILES
14	COC(=O)c1nnn(CC(=O)[C@H](C[C@@H]2CCNC2=O)NC(=O)[C@H](C)NC(=O)[C@H](C)NC(=O)[C@H](CC(C)C)NC(C)=O)c1C(=O)OC
1	CC(=O)N[C@@H](CC(C)C)C(=O)N[C@@H](C)C(=O)N[C@@H](C)C(=O)N[C@@H](CCC(=O)N(C)C)C(=O)Cn1nnc(C(=O)O)c1C(=O)O
9	COC(=O)c1nnn(CC(=O)[C@H](CCC(=O)N(C)C)NC(=O)[C@H](C)NC(=O)[C@H](C)NC(=O)[C@H](CC(C)C)NC(C)=O)c1C(=O)OC
